Experimental data: patent US20240239792A1, “MODULATORS OF BCL-2 OR BCL-2/BCL-XL AND USES THEREOF” (APPICINE THERAPEUTICS (HK) LIMITED, priority 2021, published 2024)

Key:
DOHH2 cells = assay: CellTiter-Glo cell proliferation assay, DOHH2 cells; type: cell-based; settings: Homo sapiens, DOHH-2, 72 hours
Summary of the method: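 DOHH2 cells seeded in DMEM + 10% FBS, exposed to serially diluted compound for 72 h at 37 °C, 5% CO2. Viability read by CellTiter-Glo luminescence; GI50 calculated.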

CYP2C9 = biological target: T1, CYP2C9 (Homo sapiens, UniProt P11712); assay: CYP2C9 activity assay in human liver microsomes, substrate diclofenac; type: in vitro ADME; settings: probe diclofenac, test compound 1 μM, 37° C. 10 min, read-out: Inhibition rate (%) against CYP2C9 Enzyme
T1 construct: from tissue; host or cells: human liver microsomes
T1 sequence (P11712 whole entry): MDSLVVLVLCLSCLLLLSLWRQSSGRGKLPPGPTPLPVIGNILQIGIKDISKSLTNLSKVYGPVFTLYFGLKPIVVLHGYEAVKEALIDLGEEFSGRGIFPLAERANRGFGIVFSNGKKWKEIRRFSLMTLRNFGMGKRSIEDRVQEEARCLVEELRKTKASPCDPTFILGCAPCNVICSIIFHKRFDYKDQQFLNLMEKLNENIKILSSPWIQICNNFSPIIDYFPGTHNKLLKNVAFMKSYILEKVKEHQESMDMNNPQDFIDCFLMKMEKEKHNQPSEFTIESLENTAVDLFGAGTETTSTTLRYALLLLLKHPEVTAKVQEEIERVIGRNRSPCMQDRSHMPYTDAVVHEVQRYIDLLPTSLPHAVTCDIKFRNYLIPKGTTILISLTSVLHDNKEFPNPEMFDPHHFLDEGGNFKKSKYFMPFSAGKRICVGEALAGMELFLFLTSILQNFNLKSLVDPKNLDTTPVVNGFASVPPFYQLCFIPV
Method: In this assay, several exemplary compounds of the present disclosure and a control compound (Venetoclax) were used as the test compounds. In general, the assay was conducted by the following steps: • 1. The solution of test compound, human liver microsomes solution, and substrate (diclofenac) solution were mixed in a 96-well assay plate on ice to, and the final concentration of each test compound is 1 μM; • 2. The 96-well assay plate and NADPH solution were pre-incubated at 37° C. for 5 minutes; • 3. NADPH solution was added to into the assay plates to initiate the reaction; • 4. The assay plate was incubated at 37° C. for 10 min; • 5. The reaction was stopped; and after quenching, a portion of the supernatant was taken from each well for LC/MS analysis; • 6. The inhibition rate was calculated by the following equation: Inhibition rate (%)=(1−Valuetest/Valuecontrol)×100%, where Valuetest refers to the LC/MS data obtained from wells with test compounds and Valuecontrol refers to the LC/MS data obtained from wells without test compound.

BCL-2 = biological target: T2, BCL-2 (Homo sapiens, UniProt P10415); assay: HTRF BCL-2/BAK assay (Cisbio); type: binding; settings: recombinant human Tag1-BCL-2 2 nM, Tag2-BAK 10 nM
T2 construct: purchased Cisbio 63ADK000CB01PEG
T2 sequence (P10415 whole entry): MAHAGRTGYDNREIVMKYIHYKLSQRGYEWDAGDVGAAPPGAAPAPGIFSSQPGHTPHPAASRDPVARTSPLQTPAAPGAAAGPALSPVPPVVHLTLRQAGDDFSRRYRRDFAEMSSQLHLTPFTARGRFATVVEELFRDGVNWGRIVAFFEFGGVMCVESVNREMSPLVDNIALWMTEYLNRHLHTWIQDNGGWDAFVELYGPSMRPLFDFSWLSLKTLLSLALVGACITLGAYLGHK
Method: (§1) Then the pre-mixed anti-Tag1-Eu^3+ and anti-tag2-XL665 were added to the plate and further incubated at room temperature for another 2 hours. The signals ([…]) were read on Envision 2104 instrument. The IC50 for each compound was derived from fitting the signal of 665/615 nM to the increasing compound concentration.
(§2) Using the above assays, the following compounds were tested.

BCL-XL = biological target: T3, BCL-XL (Homo sapiens, UniProt Q07817); assay: HTRF BCL-XL/BAK assay (Cisbio); type: binding; settings: recombinant human Tag1-BCL-XL 2 nM, Tag2-BAK 5 nM
T3 construct: purchased Cisbio 63ADK000CB04PEG
T3 sequence (Q07817 whole entry): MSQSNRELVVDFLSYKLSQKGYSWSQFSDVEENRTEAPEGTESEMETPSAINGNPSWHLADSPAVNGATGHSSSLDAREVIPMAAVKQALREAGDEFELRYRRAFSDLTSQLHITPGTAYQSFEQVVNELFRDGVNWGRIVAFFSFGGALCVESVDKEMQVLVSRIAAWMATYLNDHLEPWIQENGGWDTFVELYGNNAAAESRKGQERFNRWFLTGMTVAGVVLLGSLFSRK
Method: as §1, §2

Row | SMILES | inhibition at 10 min, 1 µM (CYP2C9) [%] | IC50 (BCL-2) [nM] | IC50 (BCL-XL) [nM] | GI50 (DOHH2 cells) [nM]
1 | CC(C)(C)OC(=O)N1CCC2(CC1)CC(CNc1ccc(S(=O)(=O)NC(=O)c3ccc(N4CCN([C@@H]5CCCCc6c(Cl)cccc65)CC4)cc3Oc3cnc4[nH]ccc4c3)cc1[N+](=O)[O-])C2 [Compound 100, tert-butyl (R)-2-(((4-(N-(2-((1H-pyrrolo[2,3-b]pyridin-5-yl)oxy)-4-(4-(1-chloro-6,7,8,9-tetrahydro-5H-benzo[7]annulen-5-yl)piperazin-1-yl)benzoyl)sulfamoyl)-2-nitrophenyl)amino)methyl)-7-azaspiro[3.5]nonane-7-carboxylate] | < 30 | < 20 | 200 to 2000 | 50 to 500
2 | O=C(NS(=O)(=O)c1ccc(NCC2CC3(CCNCC3)C2)c([N+](=O)[O-])c1)c1ccc(N2CCN([C@@H]3CCCCc4c(Cl)cccc43)CC2)cc1 [Compound 117, (R)-N-((4-(((7-azaspiro[3.5]nonan-2-yl)methyl)amino)-3-nitrophenyl)sulfonyl)-4-(4-(1-chloro-6,7,8,9-tetrahydro-5H-benzo[7]annulen-5-yl)piperazin-1-yl)benzamide] | – | 20 to 200 | 20 to 200 | > 5000
3 | CC(C)(C)OC(=O)NCCN1CCC2(CC1)CC(CNc1ccc(S(=O)(=O)NC(=O)c3ccc(N4CCN([C@@H]5CCCCc6c(Cl)cccc65)CC4)cc3)cc1[N+](=O)[O-])C2 [Compound 119, tert-butyl (R)-(2-(2-(((4-(N-(4-(4-(1-chloro-6,7,8,9-tetrahydro-5H-benzo[7]annulen-5-yl)piperazin-1-yl)benzoyl)sulfamoyl)-2-nitrophenyl)amino)methyl)-7-azaspiro[3.5]nonan-7-yl)ethyl)carbamate] | – | 20 to 200 | 200 to 2000 | 50 to 500
4 | NCCN1CCC2(CC1)CC(CNc1ccc(S(=O)(=O)NC(=O)c3ccc(N4CCN([C@@H]5CCCCc6c(Cl)cccc65)CC4)cc3)cc1[N+](=O)[O-])C2 [Compound 120, (R)-N-((4-(((7-(2-aminoethyl)-7-azaspiro[3.5]nonan-2-yl)methyl)amino)-3-nitrophenyl)sulfonyl)-4-(4-(1-chloro-6,7,8,9-tetrahydro-5H-benzo[7]annulen-5-yl)piperazin-1-yl)benzamide] | – | 20 to 200 | 20 to 200 | 500 to 5000
5 | O=C(NS(=O)(=O)c1ccc(NCC2CC3(CCN(CC4CC4)CC3)C2)c([N+](=O)[O-])c1)c1ccc(N2CCN([C@@H]3CCCCc4c(Cl)cccc43)CC2)cc1Oc1cnc2[nH]ccc2c1 [Compound 129, (R)-2-((1H-pyrrolo[2,3-b]pyridin-5-yl)oxy)-4-(4-(1-chloro-6,7,8,9-tetrahydro-5H-benzo[7]annulen-5-yl)piperazin-1-yl)-N-((4-(((7-(cyclopropylmethyl)-7-azaspiro[3.5]nonan-2-yl)methyl)amino)-3-nitrophenyl)sulfonyl)benzamide] | – | < 20 | < 20 | < 50
6 | CCOC(=O)CCN1CCC2(CC1)CC(CNc1ccc(S(=O)(=O)NC(=O)c3ccc(N4CCN([C@@H]5CCCCc6c(Cl)cccc65)CC4)cc3Oc3cnc4[nH]ccc4c3)cc1[N+](=O)[O-])C2 [Compound 130, ethyl (R)-3-(2-(((4-(N-(2-((1H-pyrrolo[2,3-b]pyridin-5-yl)oxy)-4-(4-(1-chloro-6,7,8,9-tetrahydro-5H-benzo[7]annulen-5-yl)piperazin-1-yl)benzoyl)sulfamoyl)-2-nitrophenyl)amino)methyl)-7-azaspiro[3.5]nonan-7-yl)propanoate] | – | < 20 | < 20 | < 50
7 | CCN1CCC2(CC1)CC(CNc1ccc(S(=O)(=O)NC(=O)c3ccc(N4CCN([C@@H]5CCCCc6c(Cl)cccc65)CC4)cc3Oc3cnc4[nH]ccc4c3)cc1[N+](=O)[O-])C2 [Compound 131, (R)-2-((1H-pyrrolo[2,3-b]pyridin-5-yl)oxy)-4-(4-(1-chloro-6,7,8,9-tetrahydro-5H-benzo[7]annulen-5-yl)piperazin-1-yl)-N-((4-(((7-ethyl-7-azaspiro[3.5]nonan-2-yl)methyl)amino)-3-nitrophenyl)sulfonyl)benzamide] | – | < 20 | < 20 | < 50
8 | CC1(C)CCC(CN2CCN(c3ccc(C(=O)NS(=O)(=O)c4ccc(NCC5CCOCC5)c([N+](=O)[O-])c4)c(Oc4cnc5[nH]ccc5c4)c3)CC2)=C(c2ccc(Cl)cc2)C1 [Venetoclax, reference compound] | 49 | – | – | –

Second part, led by results:

Row | inhibition at 10 min, 1 µM (CYP2C9) [%] | IC50 (BCL-2) [nM] | IC50 (BCL-XL) [nM] | SMILES | GI50 (DOHH2 cells) [nM]
9 | < 30 | < 20 | – | O=C(NS(=O)(=O)c1ccc(NCC2CCOCC2)c([N+](=O)[O-])c1)c1ccc(N2CCC3(CC2)CN(C2CCCc4ccccc42)C3)cc1Oc1cnc2[nH]ccc2c1 (centres unmarked) [Compound 94, 2-((1H-pyrrolo[2,3-b]pyridin-5-yl)oxy)-N-((3-nitro-4-(((tetrahydro-2H-pyran-4-yl)methyl)amino)phenyl)sulfonyl)-4-(2-(1,2,3,4-tetrahydronaphthalen-1-yl)-2,7-diazaspiro[3.5]nonan-7-yl)benzamide] | 500 to 5000
10 | – | < 20 | 20 to 200 | CC(=O)N1CCC2(CC1)CC(CNc1ccc(S(=O)(=O)NC(=O)c3ccc(N4CCN([C@@H]5CCCCc6c(Cl)cccc65)CC4)cc3Oc3cnc4[nH]ccc4c3)cc1[N+](=O)[O-])C2 [Compound 111, (R)-2-((1H-pyrrolo[2,3-b]pyridin-5-yl)oxy)-N-((4-(((7-acetyl-7-azaspiro[3.5]nonan-2-yl)methyl)amino)-3-nitrophenyl)sulfonyl)-4-(4-(1-chloro-6,7,8,9-tetrahydro-5H-benzo[7]annulen-5-yl)piperazin-1-yl)benzamide] | < 50
11 | – | < 20 | < 20 | O=C(NS(=O)(=O)c1ccc(NCC2CC3(CCN(CCO)CC3)C2)c([N+](=O)[O-])c1)c1ccc(N2CCN([C@@H]3CCCCc4c(Cl)cccc43)CC2)cc1Oc1cnc2[nH]ccc2c1 [Compound 121, (R)-2-((1H-pyrrolo[2,3-b]pyridin-5-yl)oxy)-4-(4-(1-chloro-6,7,8,9-tetrahydro-5H-benzo[7]annulen-5-yl)piperazin-1-yl)-N-((4-(((7-(2-hydroxyethyl)-7-azaspiro[3.5]nonan-2-yl)methyl)amino)-3-nitrophenyl)sulfonyl)benzamide] | < 50
12 | – | < 20 | 20 to 200 | CCOC(=O)CN1CCC2(CC1)CC(CNc1ccc(S(=O)(=O)NC(=O)c3ccc(N4CCN([C@@H]5CCCCc6c(Cl)cccc65)CC4)cc3Oc3cnc4[nH]ccc4c3)cc1[N+](=O)[O-])C2 [Compound 122, ethyl (R)-2-(2-(((4-(N-(2-((1H-pyrrolo[2,3-b]pyridin-5-yl)oxy)-4-(4-(1-chloro-6,7,8,9-tetrahydro-5H-benzo[7]annulen-5-yl)piperazin-1-yl)benzoyl)sulfamoyl)-2-nitrophenyl)amino)methyl)-7-azaspiro[3.5]nonan-7-yl)acetate] | < 50
13 | – | < 20 | < 20 | O=C(O)CN1CCC2(CC1)CC(CNc1ccc(S(=O)(=O)NC(=O)c3ccc(N4CCN([C@@H]5CCCCc6c(Cl)cccc65)CC4)cc3Oc3cnc4[nH]ccc4c3)cc1[N+](=O)[O-])C2 [Compound 123, (R)-2-(2-(((4-(N-(2-((1H-pyrrolo[2,3-b]pyridin-5-yl)oxy)-4-(4-(1-chloro-6,7,8,9-tetrahydro-5H-benzo[7]annulen-5-yl)piperazin-1-yl)benzoyl)sulfamoyl)-2-nitrophenyl)amino)methyl)-7-azaspiro[3.5]nonan-7-yl)acetic acid] | 50 to 500
14 | – | < 20 | 20 to 200 | CC(C)C(=O)N1CCC2(CC1)CC(CNc1ccc(S(=O)(=O)NC(=O)c3ccc(N4CCN([C@@H]5CCCCc6c(Cl)cccc65)CC4)cc3Oc3cnc4[nH]ccc4c3)cc1[N+](=O)[O-])C2 [Compound 124, (R)-2-((1H-pyrrolo[2,3-b]pyridin-5-yl)oxy)-4-(4-(1-chloro-6,7,8,9-tetrahydro-5H-benzo[7]annulen-5-yl)piperazin-1-yl)-N-((4-(((7-isobutyryl-7-azaspiro[3.5]nonan-2-yl)methyl)amino)-3-nitrophenyl)sulfonyl)benzamide] | < 50
15 | – | < 20 | < 20 | CC(C)[C@H](N)C(=O)N1CCC2(CC1)CC(CNc1ccc(S(=O)(=O)NC(=O)c3ccc(N4CCN([C@@H]5CCCCc6c(Cl)cccc65)CC4)cc3Oc3cnc4[nH]ccc4c3)cc1[N+](=O)[O-])C2 [Compound 125, 2-((1H-pyrrolo[2,3-b]pyridin-5-yl)oxy)-N-((4-(((7-(L-valyl)-7-azaspiro[3.5]nonan-2-yl)methyl)amino)-3-nitrophenyl)sulfonyl)-4-(4-((R)-1-chloro-6,7,8,9-tetrahydro-5H-benzo[7]annulen-5-yl)piperazin-1-yl)benzamide] | < 50
